Marks after values point to notes of the source that are not given here.

In assay [1] the test system is STZ-induced diabetic rats. The assay is described as follows: OGTT in STZ-induced diabetic rats (Example 8). It is filed as in vivo, rat. As to conditions: for Plasma glucose 0 hr: before dosing; for Plasma glucose 0 hr / Plasma glucose 0.5 hr / Plasma glucose 1 hr / Plasma glucose 2 hr / Plasma glucose 3 hr / ΔAUC (0-1) / ΔAUC (0-1) (% of Control): glucose 2 g/kg, mean ± S.E.M.; for PG elevation after glucose administration: 0.03 and 0.1 mg/kg oral, OGTT 2 g/kg. The procedure:
(§1) Study in diabetic rats with glucose. Diabetic rats, induced by intravenous injection of streptozotocin (STZ; 40 mg/kg), were used to determining plasma glucose concentration (PG) 1 hr after oral glucose tolerance test (OGTT). […] Blood was collected via the caudal artery immediately before dosing and 0.5, 1, 2, and 3 hr after dosing. The glucose concentration measurement in plasma used Glucose CII-Test Wako kit (Wako Pure Chemicals Industries, Ltd., Osaka, Japan). The variables used for efficacy assessment were the measurement values of the plasma glucose concentration and the area under the curve for plasma glucose concentration through 1 hr after loading (ΔAUC0-1 hr). The ΔAUC0-1 hr for plasma glucose was calculated based on the trapezoid method using the change of plasma glucose concentrations from pre-value (0 hr).

The subject of assay [2] is STZ-induced diabetic rats. The assay is described as follows: Oral mixed-carbohydrate tolerance test (OMCTT) in STZ-induced diabetic rats (Example 9). In kind it is in vivo, rat. As to conditions: for Plasma glucose 0 hr: before dosing; for Plasma glucose 0 hr / Plasma glucose 0.5 hr / Plasma glucose 1 hr / Plasma glucose 2 hr / Plasma glucose 3 hr / ΔAUC (0-1) / ΔAUC (0-1) (% of Control): mixed-carbohydrate load, mean ± S.E.M.; for PG elevation after glucose administration: 0.03 and 0.1 mg/kg oral, OMCTT. The procedure:
as §1, with “with mixed carbohydrates.” for “with glucose.”, “oral mixed-carbohydrate” for “oral glucose”, “test (OMCTT).” for “test (OGTT).”

Assay [3] concerns healthy adult male volunteers. The assay is described as follows: Repeat dose study in humans, pharmacodynamic parameters after meals. It is filed as in vivo, human. As to conditions: repeat dosing. The procedure: Repeat dose study in humans. Oral doses of 2 mg, 5 mg, 10 mg, 20 mg, of mizagliflozin, placebo or miglitol 50 mg per dose three times daily to healthy adult male volunteers by a randomized, placebo-controlled, parallel-group, double-blind comparison method. The dose was orally administered with approximately 150 mL of water once daily immediately before breakfast on Days 1 and 13, and three times daily immediately before every meal on Days 3 to 12.
Changes in the following parameters and ΔAUC from 0 to t* hours after breakfast, lunch, and evening meal were measured: Blood glucose level, Serum insulin concentration, Blood active GLP-1 concentration, and Blood total GIP concentration, where t=0.5, 1, 1.5, 2, and 3 (t=0.5, 1, 1.5, 2, 3, and 5 only after breakfast).
In the miglitol group, hyperglycemia was suppressed after breakfast, lunch, and evening meal, as compared to the placebo group. […] These pharmacodynamic effects more or less persisted during 10-day repeated administration. There was no correlation between plasma mizagliflozin concentration and the pharmacodynamic effects. Measurements in Tables 5-8 were performed on Day 3 after breakfast.

Where [4] appears, read: 50 mg per dose, Day 3 after breakfast.

As for `Cc1cc(OCCCN)ccc1Cc1c(O[C@@H]2O[C@H](CO)[C@@H](O)[C@H](O)[C@H]2O)n[nH]c1C(C)C` [KGA-2586], in assay [1] (0.03 mg/kg oral), the “Plasma glucose 0 hr” value is 128 ± 4 mg/dL, the “Plasma glucose 0.5 hr” value was found to be 351 ± 22 mg/dL, the “Plasma glucose 1 hr” value is on record as 350 ± 32 mg/dL and the “Plasma glucose 2 hr” value turned out to be 154 ± 20 mg/dL. In assay [1] (0.03 mg/kg oral), the “Plasma glucose 3 hr” value is recorded as 86 ± 4 mg/dL, the “ΔAUC (0-1)” value was 167 ± 20 mg·h/dL and the “ΔAUC (0-1) (% of Control)” value was 86 ± 10 % of Control. Further, in assay [1] (0.1 mg/kg oral), the “Plasma glucose 0 hr” value was 121 ± 8 ^ mg/dL, the “Plasma glucose 0.5 hr” value is listed as 236 ± 18^z mg/dL, the “Plasma glucose 1 hr” value is 257 ± 24^x mg/dL and the “Plasma glucose 2 hr” value is 193 ± 21^x mg/dL. Moreover, in assay [1] (0.1 mg/kg oral), the “Plasma glucose 3 hr” value is on record as 105 ± 12^ mg/dL, the “ΔAUC (0-1)” value was 91 ± 11^y mg · dL^−1 · hr and the “ΔAUC (0-1) (% of Control)” value is 47 ± 6^y % of Control. For the same molecule, the “PG elevation after glucose administration” value (shortened to “PG elevation”) in assay [1] is reported as “inhibited PG elevation after glucose administration dose dependently”. For the same molecule, in assay [2] (0.03 mg/kg oral), the “Plasma glucose 0 hr” value is on record as 118 ± 8 mg/dL, the “Plasma glucose 0.5 hr” value was 269 ± 5^y mg/dL, the “Plasma glucose 1 hr” value worked out at 235 ± 8 mg/dL and the “Plasma glucose 2 hr” value came to 112 ± 11 mg/dL. For the same molecule, in assay [2] (0.03 mg/kg oral), the “Plasma glucose 3 hr” value is 108 ± 10 mg/dL, the “ΔAUC (0-1)” value is on record as 105 ± 4^x mg · dL^−1 · hr and the “ΔAUC (0-1) (% of Control)” value is reported as 64 ± 2^x % of Control. Further, in assay [2] (0.1 mg/kg oral), the “Plasma glucose 0 hr” value is 126 ± 7^ mg/dL, the “Plasma glucose 0.5 hr” value is given as 213 ± 11^z mg/dL, the “Plasma glucose 1 hr” value was found to be 215 ± 13 mg/dL and the “Plasma glucose 2 hr” value amounted to 144 ± 12 mg/dL. For the same molecule, in assay [2] (0.1 mg/kg oral), the “Plasma glucose 3 hr” value is 108 ± 8^ mg/dL, the “ΔAUC (0-1)” value is reported as 65 ± 6^z mg · dL^−1 · hr and the “ΔAUC (0-1) (% of Control)” value is 40 ± 4^z % of Control. The “PG elevation” value in assay [2] is recorded as “inhibited PG elevation after glucose administration dose dependently”.

Take `Cc1cc(OCCCNCC(N)=O)ccc1Cc1c(O[C@@H]2O[C@H](CO)[C@@H](O)[C@H](O)[C@H]2O)n[nH]c1C(C)C` [KGA-2588]: in assay [1] (0.03 mg/kg oral), the “Plasma glucose 0 hr” value is listed as 137 ± 6 mg/dL, the “Plasma glucose 0.5 hr” value worked out at 351 ± 29 mg/dL, the “Plasma glucose 1 hr” value is 363 ± 48 mg/dL and the “Plasma glucose 2 hr” value is on record as 185 ± 25 mg/dL. Further, in assay [1] (0.03 mg/kg oral), the “Plasma glucose 3 hr” value came out at 101 ± 4 mg/dL, the “ΔAUC (0-1)” value was found to be 163 ± 23 mg·h/dL and the “ΔAUC (0-1) (% of Control)” value is reported as 84 ± 12 % of Control. In addition, in assay [1] (0.1 mg/kg oral), the “Plasma glucose 0 hr” value is on record as 128 ± 8 ^ mg/dL, the “Plasma glucose 0.5 hr” value is recorded as 249 ± 32^y mg/dL, the “Plasma glucose 1 hr” value is listed as 286 ± 51^ mg/dL and the “Plasma glucose 2 hr” value was 221 ± 33^x mg/dL. Besides, in assay [1] (0.1 mg/kg oral), the “Plasma glucose 3 hr” value is on record as 145 ± 5^z mg/dL, the “ΔAUC (0-1)” value is 100 ± 23^x mg · dL^−1 · hr and the “ΔAUC (0-1) (% of Control)” value is on record as 51 ± 12^x % of Control. In addition, the “PG elevation” value in assay [1] was “inhibited PG elevation after glucose administration dose dependently”. Also, in assay [2] (0.03 mg/kg oral), the “Plasma glucose 0 hr” value came out at 120 ± 3 mg/dL, the “Plasma glucose 0.5 hr” value turned out to be 291 ± 22 mg/dL, the “Plasma glucose 1 hr” value was 248 ± 17 mg/dL and the “Plasma glucose 2 hr” value came to 109 ± 7 mg/dL. Also, in assay [2] (0.03 mg/kg oral), the “Plasma glucose 3 hr” value was found to be 100 ± 6 mg/dL, the “ΔAUC (0-1)” value was determined as 117 ± 14 mg·h/dL and the “ΔAUC (0-1) (% of Control)” value is recorded as 72 ± 9 % of Control. Moreover, in assay [2] (0.1 mg/kg oral), the “Plasma glucose 0 hr” value came to 123 ± 8 mg/dL, the “Plasma glucose 0.5 hr” value is 258 ± 25^x mg/dL, the “Plasma glucose 1 hr” value is 224 ± 23 mg/dL and the “Plasma glucose 2 hr” value amounted to 132 ± 4 mg/dL. Further, in assay [2] (0.1 mg/kg oral), the “Plasma glucose 3 hr” value is recorded as 114 ± 6 mg/dL, the “ΔAUC (0-1)” value was 93 ± 13 mg·h/dL and the “ΔAUC (0-1) (% of Control)” value is reported as 57 ± 8 % of Control. For the same molecule, in assay [2], the “PG elevation” value is given as “inhibited PG elevation after glucose administration dose dependently”.

As for `Cc1cc(OCCCNCCC(N)=O)ccc1Cc1c(O[C@@H]2O[C@H](CO)[C@@H](O)[C@H](O)[C@H]2O)n[nH]c1C(C)C` [KGA-2727], in assay [1] (0.03 mg/kg oral), the “Plasma glucose 0 hr” value was 120 ± 9 mg/dL, the “Plasma glucose 0.5 hr” value is listed as 354 ± 34 mg/dL, the “Plasma glucose 1 hr” value is 342 ± 42 mg/dL and the “Plasma glucose 2 hr” value is 155 ± 24 mg/dL. Moreover, in assay [1] (0.03 mg/kg oral), the “Plasma glucose 3 hr” value is given as 85 ± 6 mg/dL, the “ΔAUC (0-1)” value was 172 ± 21 mg·h/dL and the “ΔAUC (0-1) (% of Control)” value is listed as 89 ± 11 % of Control. For the same molecule, in assay [1] (0.1 mg/kg oral), the “Plasma glucose 0 hr” value is 116 ± 6 ^ mg/dL, the “Plasma glucose 0.5 hr” value is recorded as 233 ± 15^y mg/dL, the “Plasma glucose 1 hr” value was 262 ± 19^ mg/dL and the “Plasma glucose 2 hr” value is listed as 194 ± 12^x mg/dL. Moreover, in assay [1] (0.1 mg/kg oral), the “Plasma glucose 3 hr” value was 102 ± 16^ mg/dL, the “ΔAUC (0-1)” value was 95 ± 14^y mg · dL^−1 · hr and the “ΔAUC (0-1) (% of Control)” value was 49 ± 7^y % of Control. Further, the “PG elevation” value in assay [1] is given as “inhibited PG elevation after glucose administration dose dependently”. For the same molecule, in assay [2] (0.03 mg/kg oral), the “Plasma glucose 0 hr” value was found to be 114 ± 7 mg/dL, the “Plasma glucose 0.5 hr” value is given as 317 ± 28 mg/dL, the “Plasma glucose 1 hr” value is given as 250 ± 30 mg/dL and the “Plasma glucose 2 hr” value stood at 114 ± 5 mg/dL. Besides, in assay [2] (0.03 mg/kg oral), the “Plasma glucose 3 hr” value was determined as 104 ± 7 mg/dL, the “ΔAUC (0-1)” value amounted to 135 ± 20 mg·h/dL and the “ΔAUC (0-1) (% of Control)” value is listed as 83 ± 12 % of Control. In assay [2] (0.1 mg/kg oral), the “Plasma glucose 0 hr” value came out at 124 ± 8 mg/dL, the “Plasma glucose 0.5 hr” value was 240 ± 17^y mg/dL, the “Plasma glucose 1 hr” value is listed as 248 ± 29 mg/dL and the “Plasma glucose 2 hr” value came to 133 ± 4 mg/dL. In assay [2] (0.1 mg/kg oral), the “Plasma glucose 3 hr” value is listed as 106 ± 9 mg/dL, the “ΔAUC (0-1)” value stood at 89 ± 12 mg·h/dL and the “ΔAUC (0-1) (% of Control)” value is listed as 55 ± 7 % of Control. Further, in assay [2], the “PG elevation” value is reported as “inhibited PG elevation after glucose administration dose dependently”.

Take `CC(C)c1[nH]nc(O[C@@H]2O[C@H](CO)[C@@H](O)[C@H](O)[C@H]2O)c1Cc1ccc(CCCC(=O)NC(C)(C)C(=O)N2CCNCC2)cc1` [KGA-2891]: the “PG elevation” value in assay [1] and in assay [2] was “inhibited PG elevation after glucose administration dose dependently” throughout.

On to `OCCN1C[C@H](O)[C@@H](O)[C@H](O)[C@H]1CO` [Miglitol, miglitol, reference compound], for which, in assay [3] (setting [4]), the “AUC 0-5 GIP” value was determined as 897.03 pg·h/mL, the “AUC 0-5 GLP-1 (active)” value worked out at 20.5 pmol·h/L, the “AUC 0-5 Insulin” value is reported as 138.33 uU*h/ml and the “AUC 0-5 glucose” value came out at 543.7 mg·h/dL. For the same molecule, in assay [3] (setting [4]), the “GIP (peak)” value is 235 pg/mL, the “GLP-1 (active) (peak)” value amounted to 6.21 pmol/L, the “Glucose (peak)” value worked out at 121.6 mg/dL and the “Insulin (peak)” value came to 40.4 uU/ml. For the same molecule, in assay [3] (setting [4]), the “Time (h) to peak, GIP” value came out at 3 h; the “Time (h) to peak, GLP-1 (active)” value was determined as 0.5 h; the “Time (h) to peak, glucose” value turned out to be 1.5 h; the “Time (h) to peak, insulin” value worked out at 2 h. For the same molecule, in assay [3] (healthy adult male volunteers), the “active GLP-1 concentration” value is “a tendency toward increase”; the “hyperglycemia after breakfast, lunch, and evening meal” value is “suppressed”; the insulin secretion result is on record as “inhibition of insulin secretion”; the “total GIP concentration” value was “inhibition of increase in total GIP concentration”. Also, the “total GLP-1 concentration” value in assay [3] (healthy adult male volunteers) is on record as “an increase in total GLP-1 concentration”.

Source of the values: patent US11596644B2, “Method for treating post-prandial hypoglycemia” (AVOLYNT, priority 2018, dated 2023).
